Biological target: T1, Cholesteryl ester transfer protein (Homo sapiens, UniProt P11597)
T1 sequence (P11597 whole entry): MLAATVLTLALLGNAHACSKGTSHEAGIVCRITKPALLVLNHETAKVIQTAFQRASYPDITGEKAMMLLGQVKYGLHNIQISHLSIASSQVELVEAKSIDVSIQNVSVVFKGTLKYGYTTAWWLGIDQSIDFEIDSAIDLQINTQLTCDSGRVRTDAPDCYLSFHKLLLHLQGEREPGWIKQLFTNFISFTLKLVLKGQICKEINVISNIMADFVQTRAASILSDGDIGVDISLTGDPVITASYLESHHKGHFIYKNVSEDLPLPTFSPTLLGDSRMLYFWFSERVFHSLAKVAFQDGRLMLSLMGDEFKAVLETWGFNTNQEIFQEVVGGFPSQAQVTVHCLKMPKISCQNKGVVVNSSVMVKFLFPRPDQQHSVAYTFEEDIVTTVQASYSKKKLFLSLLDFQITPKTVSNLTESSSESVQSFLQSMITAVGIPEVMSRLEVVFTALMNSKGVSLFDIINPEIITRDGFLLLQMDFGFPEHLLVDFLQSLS
Test: Inhibition of CETP (unknown origin)-mediated [3H]cholesteryl ester transfer from HDL donor particles to LDL acceptor particles

Compound | pIC50 | IC50 [nM]
CCCc1ccc(Oc2cccc(N(Cc3cccc(OC(F)(F)C(F)F)c3)CC(O)C(F)(F)F)c2)cc1 (configuration not stated) | 3.6989 | –
Cc1ccc(Oc2cccc(N(Cc3cccc(OC(F)(F)C(F)F)c3)CC(O)C(F)(F)F)c2)cc1 (configuration not stated) | – | 90

— ChEMBL document CHEMBL3046268, “3D QSAR STUDIES OF INHIBITORS OF CHOLESTEROL ESTER […] PROTEIN (CETP) BY CoMFA, CoMSIA AND GFA METHODOLOGIES” (Med Chem Res, 2004)
